Test results from patent publication US20240043420A1, “7-AZAINDOLE COMPOUNDS FOR INHIBITION OF BCR-ABL TYROSINE KINASES” (EnLiven Therapeutics, Inc., priority 2020, published 2024).

Key:
K562 cells = test: K562 cell proliferation assay (CellTiter-Glo); format: cell-based; conditions: Homo sapiens, K562, 72 h, CellTiter-Glo viability, read-out: Cell Line (IC50, nM) K562
Description: (§1) K562 and HL60 cells, cultured in Iscove's Modified Dulbecco's Media (IMDM) supplemented with 10% FBS, were harvested at 50-80% confluency and plated at 2,000 cells per well (K562) or 1,500 cells per well (HL60) in 384-well tissue culture plates. A subset of wells contained media only (low control, LC). Compounds were serially diluted in DMSO. 40 nL of compound or DMSO only (high control, HC) were added to each well using an Echo 550 liquid handler (Labcyte). The plates were placed in a 37° C. incubator with 5% CO2 for 72 hours. Cell viability was measured using a CellTiter-Glo luminescent cell viability assay (Promega), which allows for relative quantification of metabolically active cells by luminescence-based measurements of intracellular ATP concentrations. Briefly, plates were removed from the incubator and equilibrated for 15 minutes at room temperature prior to the addition of 40 μL of CellTiter-Glo reagent. Plates were then incubated for 30 minutes at room temperature. Luminescence was measured using an EnSpire plate reader (Perkin Elmer). As noted above, luminescence values from wells with DMSO only or media without cells were used as high and low controls (HC and LC), respectively. Normalized percent viability was calculated as follows: percent viability=100×(Lumsample−LumLC)/(LumHC−LumLC).

HL60 cells = test: HL60 cell proliferation assay (CellTiter-Glo); format: cell-based; conditions: Homo sapiens, HL-60, 72 h, CellTiter-Glo viability, read-out: Cell Line (IC50, nM) HL60
Description: as §1

ABL1 = target: T1, ABL1 (Homo sapiens, UniProt P00519); test: Luminescence-based ABL kinase assay (ADP-Glo, 300 μM ATP); format: biochemical
T1 construct: purchased Carna Biosciences
Description: (§2) Kinase activity of ABL1 was measured using the ADP-Glo system (Promega), which measures formation of ADP using a luminescence-based method. Compounds were serially diluted in DMSO. 20 nL of compound or DMSO only (high control, HC) were added to a 384-well plate (OptiPlate-384, PerkinElmer) using an Echo550 liquid handler (Labcyte). 15 μL of kinase solution (10 mM MgCl2, 0.01% Brij-35, 2 mM DTT, 0.05% BSA, 1 mM EGTA, 50 mM HEPES pH 7.5, and 3.325 nM ABL1 [Carna Biosciences]) were added to each well of the 384-well plate containing the compounds. No enzyme control wells were included (low control, LC). The plate was incubated at room temperature for 30 minutes. 5 μL of a second solution containing 10 mM MgCl2, 0.01% Brij-35, 2 mM DTT, 0.05% BSA, 1 mM EGTA, 50 mM HEPES pH 7.5, 6 μM Peptide 2 (Perkin Elmer, Cat No 760346), and 1.2 mM ATP were added to each well to start the kinase reaction. The plate was incubated for 90 minutes at room temperature. 20 μL of ADP-Glo reagent (Promega) were then added to each well and the plate was incubated for 40 minutes at room temperature. 40 μL of kinase detection reagent (Promega) was added to each well and the plate was incubated for an additional 45 minutes at room temperature. During this step, ADP was converted to ATP, a substrate for luciferase, to produce luminescence signal. Luminescence was measured on an Envision plate reader (Perkin Elmer). Luminescence signal positively correlates with kinase activity. The percent kinase activity was calculated as follows: percent kinase activity=100×(Lumsample−LumLC)/(LumHC−LumLC). As noted above, DMSO only and no enzyme wells were used as high and low controls, respectively. IC50 values were calculated using the XLFit software.

ABL1 (T315I) = ABL1 (T315I) (Homo sapiens, UniProt P00519, T315I); test: Luminescence-based ABL kinase assay (ADP-Glo, 300 μM ATP), T315I mutant; format: biochemical
Description: as §2

IC50 (K562 cells) [nM] | IC50 (HL60 cells) [nM] | IC50 (ABL1) [nM] | IC50 (ABL1 (T315I)) [nM] | Structure (SMILES)
202 | 4450 | 96.6 | 9.74 | O=C(Nc1ccc2c(-c3cccc(O)c3)c[nH]c2n1)C1CC1 [Compound 13, N-[3-(3-hydroxyphenyl)-1H-pyrrolo[2,3-b]pyridin-6-yl]cyclopropanecarboxamide]
147 | 287 | 11.2 | 4.57 | O=C(Nc1ccc2c(-c3ccc4[nH]cnc4c3)c[nH]c2n1)C1CC1 [Compound 19, N-[3-(1H-1,3-benzodiazol-5-yl)-1H-pyrrolo[2,3-b]pyridin-6-yl]cyclopropanecarboxamide]
286 | 1570 | 94.8 | 8.74 | O=C(Nc1ccc2c(-c3ccc4[nH]ncc4c3)c[nH]c2n1)C1CC1 [Compound 21, N-(3-(1H-indazol-5-yl)-1H-pyrrolo[2,3-b]pyridin-6-yl)cyclopropanecarboxamide]
454 | 470 | 41.8 | 10.5 | Cc1nc2cc(-c3c[nH]c4nc(NC(=O)C5CC5)ccc34)ccc2[nH]1 [Compound 29, N-(3-(2-methyl-1H-benzo[d]imidazol-5-yl)-1H-pyrrolo[2,3-b]pyridin-6-yl)cyclopropanecarboxamide]
231 | > 10000 | 46.1 | 103 | CNc1ncccc1-c1c[nH]c2nc(NC(=O)C3CC3)ccc12 [Compound 37, N-[3-[2-(methylamino)pyridin-3-yl]-1H-pyrrolo[2,3-b]pyridin-6-yl]cyclopropanecarboxamide]
779 | > 10000 | 91.1 | 15.6 | COc1ccccc1-c1c[nH]c2nc(NC(=O)NCCN3CCOCC3)ccc12 [Compound 43, 3-[3-(2-methoxyphenyl)-1H-pyrrolo[2,3-b]pyridin-6-yl]-1-[2-(morpholin-4-yl)ethyl]urea]
5170 | > 10000 | 218 | 417 | COc1nc2cn[nH]c2cc1-c1c[nH]c2nc(NC(=O)C3CC3)ccc12 [Compound 60, N-(3-[5-methoxy-1H-pyrazolo[4,3-b]pyridin-6-yl]-1H-pyrrolo[2,3-b]pyridin-6-yl)cyclopropanecarboxamide]
607 | 3690 | 78.2 | 19.2 | COc1ncccc1-c1c(F)[nH]c2nc(NC(=O)[C@@H]3C[C@@H]3F)ccc12 [Compound 68, (1S,2S)-2-fluoro-N-[2-fluoro-3-(2-methoxypyridin-3-yl)-1H-pyrrolo[2,3-b]pyridin-6-yl]cyclopropane-1-carboxamide]

More lines, now with the values behind:

Structure (SMILES) | IC50 (K562 cells) [nM] | IC50 (HL60 cells) [nM] | IC50 (ABL1) [nM] | IC50 (ABL1 (T315I)) [nM]
O=C(Nc1ccc2c(-c3ccccc3Cl)c[nH]c2n1)C1CC1 [Compound 6, N-[3-(2-chlorophenyl)-1H-pyrrolo[2,3-b]pyridin-6-yl]cyclopropanecarboxamide] | 452 | > 10000 | 123 | 65.6
COc1ncccc1-c1c[nH]c2nc(NC(=O)C3CC3)ccc12 [Compound 14, N-[3-(2-methoxypyridin-3-yl)-1H-pyrrolo[2,3-b]pyridin-6-yl]cyclopropanecarboxamide] | 416 | > 10000 | 91.2 | 52.8
COc1cc2cc[nH]c2cc1-c1c[nH]c2nc(NC(=O)C3CC3)ccc12 [Compound 17, N-[3-(5-methoxy-1H-indol-6-yl)-1H-pyrrolo[2,3-b]pyridin-6-yl]cyclopropanecarboxamide] | 229 | > 10000 | 55.1 | 28.6
COc1cccc(F)c1-c1c[nH]c2nc(NC(=O)[C@H]3C[C@H]3F)ccc12 [Compound 22, (1R,2R)-2-fluoro-N-[3-(2-fluoro-6-methoxyphenyl)-1H-pyrrolo[2,3-b]pyridin-6-yl]cyclopropane-1-carboxamide] | 421 | > 10000 | 78.9 | 7.17
O=C(Nc1ccc2c(-c3ccc4[nH]cnc4c3)c[nH]c2n1)[C@@H]1C[C@@H]1F [Compound 28, (1S,2S)—N-[3-(1H-1,3-benzodiazol-5-yl)-1H-pyrrolo[2,3-b]pyridin-6-yl]-2-fluorocyclopropane-1-carboxamide] | 62.1 | 385 | 7.58 | 2.84
O=C(Nc1ccc2c(-c3cccnc3OC(F)F)c[nH]c2n1)C1CC1 [Compound 48, N-[3-[2-(difluoromethoxy)pyridin-3-yl]-1H-pyrrolo[2,3-b]pyridin-6-yl]cyclopropanecarboxamide] | 777 | 9210 | 94.9 | 244
CCOc1ncccc1-c1n[nH]c2nc(NC(=O)[C@@H]3C[C@@H]3F)ccc12 [Compound 64, (1S,2S)—N-[3-(2-ethoxypyridin-3-yl)-1H-pyrazolo[3,4-b]pyridin-6-yl]-2-fluorocyclopropane-1-carboxamide] | 610 | > 10000 | 56.9 | 140
CCOc1cccc(F)c1-c1n[nH]c2nc(NC(=O)[C@@H]3C[C@@H]3F)ccc12 [Compound 67, (1S,2S)—N-(3-(2-ethoxy-6-fluorophenyl)-1H-pyrazolo[3,4-b]pyridin-6-yl)-2-fluorocyclopropane-1-carboxamide] | 1140 | > 10000 | 157 | 37.7
O=C(Nc1ccc2c(-c3cccnc3OC3CC3)c[nH]c2n1)[C@@H]1C[C@@H]1F [Compound 69, (1S,2S)—N-[3-(2-cyclopropoxypyridin-3-yl)-1H-pyrrolo[2,3-b]pyridin-6-yl]-2-fluorocyclopropane-1-carboxamide] | 162 | > 10000 | 27.6 | 27.4
O=C(Nc1ccc2c(-c3cccnc3OC(F)F)c[nH]c2n1)[C@@H]1C[C@@H]1F [Compound 70, (1S,2S)—N-[3-[2-(difluoromethoxy)pyridin-3-yl]-1H-pyrrolo[2,3-b]pyridin-6-yl]-2-fluorocyclopropane-1-carboxamide] | 312 | > 10000 | 60.3 | 140
O=C(Nc1ccc2c(-c3ccc4nccn4c3)c[nH]c2n1)[C@@H]1C[C@@H]1F [Compound 71, (1S,2S)-2-fluoro-N-(3-[imidazo[1,2-a]pyridin-6-yl]-1H-pyrrolo[2,3-b]pyridin-6-yl)cyclopropane-1-carboxamide] | 292 | 334 | 48 | 55.2
COc1cc2nccn2cc1-c1c[nH]c2nc(NC(=O)[C@@H]3C[C@@H]3F)ccc12 [Compound 72, (1S,2S)-2-fluoro-N-(3-(7-methoxyimidazo[1,2-a]pyridin-6-yl)-1H-pyrrolo[2,3-b]pyridin-6-yl)cyclopropane-1-carboxamide] | 1020 | > 10000 | 70.2 | 162
COc1cccc(OC)c1-c1n[nH]c2nc(NC(=O)[C@@H]3C[C@@H]3F)ccc12 [Compound 78, (1S,2S)—N-(3-(2,6-dimethoxyphenyl)-1H-pyrazolo[3,4-b]pyridin-6-yl)-2-fluorocyclopropane-1-carboxamide] | 94.8 | > 10000 | 17.8 | 139
